Experimental data reported in PMC4515243, “Phase 1 pharmacokinetic study of the oral pan-AKT inhibitor MK-2206 in Japanese patients with advanced solid tumors” (Cancer Chemotherapy and Pharmacology, 2015).
Several values for one entry are separate records, joined by “and”; a condition that tells them apart may be missing. Equal entries are not always repeated.

Test system: Japanese patients with advanced solid tumors
Test: phase 1 safety and tolerability (DLT, adverse events) in Japanese patients;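 also: toxicities graded by NCI CTCAE version 3.0, treatment given until disease progression or unacceptable toxicity, three to nine patients enrolled per dose level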
[1] = all cohorts (n = 24), all treatment cycles

Excerpt: Treatment was continued until disease progression or the occurrence of an unacceptable toxicity.
A minimum of three and up to nine patients were enrolled at each dose level based on the toxicity probability intervals [9].
Adverse events were graded using the National Cancer Institute Common Terminology Criteria for Adverse Events, version 3.0.

NC1(c2ccc(-c3nc4ccn5c(=O)[nH]nc5c4cc3-c3ccccc3)cc2)CCC1 [MK-2206]
Eosinophilia, drug-related adverse event, patients (135 mg QW (n = 3), Grades 3–5): 0 | Erythema multiforme, drug-related adverse event, patients (135 mg QW (n = 3), Grades 3–5): 0 | Fatigue, drug-related adverse event, patients (135 mg QW (n = 3), Grades 3–5): 0 | HbA1C increased, drug-related adverse event, patients (135 mg QW (n = 3), Grades 3–5): 0 | Hyperglycemia, drug-related adverse event, patients (135 mg QW (n = 3), Grades 3–5): 0 | Hypernatremia, drug-related adverse event, patients (135 mg QW (n = 3), Grades 3–5): 0 | Hypoalbuminemia, drug-related adverse event, patients (135 mg QW (n = 3), Grades 3–5): 0 | Hypokalemia, drug-related adverse event, patients (135 mg QW (n = 3), Grades 3–5): 0 | Insulin c-peptide increased, drug-related adverse event, patients (135 mg QW (n = 3), Grades 3–5): 0 | Leukopenia, drug-related adverse event, patients (135 mg QW (n = 3), Grades 3–5): 0 | Localized edema, drug-related adverse event, patients (135 mg QW (n = 3), Grades 3–5): 0 | Lymphopenia, drug-related adverse event, patients (135 mg QW (n = 3), Grades 3–5): 0 | Nausea, drug-related adverse event, patients (135 mg QW (n = 3), Grades 3–5): 0 | Neutropenia, drug-related adverse event, patients (135 mg QW (n = 3), Grades 3–5): 0 | Palmar-plantar erythrodysaesthesia syndrome, drug-related adverse event, patients (135 mg QW (n = 3), Grades 3–5): 0 | Pruritus, drug-related adverse event, patients (135 mg QW (n = 3), Grades 3–5): 0 | Pyrexia, drug-related adverse event, patients (135 mg QW (n = 3), Grades 3–5): 0 | Rash, drug-related adverse event, patients (135 mg QW (n = 3), Grades 3–5): 0 | Stomatitis, drug-related adverse event, patients (135 mg QW (n = 3), Grades 3–5): 0 | Vomiting, drug-related adverse event, patients (135 mg QW (n = 3), Grades 3–5): 0 | patients who discontinued treatment because of grade 2 rash (200 mg QW): One patient | patients with DLTs during Cycle 1 (200 mg QW): Three of the nine | ALT increased, drug-related adverse event, patients (200 mg QW (n = 9), All grades): 3 | Blood creatinine increased, drug-related adverse event, patients (200 mg QW (n = 9), All grades): 6 | Decreased appetite, drug-related adverse event, patients (200 mg QW (n = 9), All grades): 4 | Diarrhea, drug-related adverse event, patients (200 mg QW (n = 9), All grades): 3 | Dry skin, drug-related adverse event, patients (200 mg QW (n = 9), All grades): 2 | Eosinophil count increased, drug-related adverse event, patients (200 mg QW (n = 9), All grades): 5 | Eosinophilia, drug-related adverse event, patients (200 mg QW (n = 9), All grades): 4 | Erythema multiforme, drug-related adverse event, patients (200 mg QW (n = 9), All grades): 4 | Fatigue, drug-related adverse event, patients (200 mg QW (n = 9), All grades): 4 | HbA1C increased, drug-related adverse event, patients (200 mg QW (n = 9), All grades): 4 | Hyperglycemia, drug-related adverse event, patients (200 mg QW (n = 9), All grades): 6 | Hypernatremia, drug-related adverse event, patients (200 mg QW (n = 9), All grades): 4 | Hypoalbuminemia, drug-related adverse event, patients (200 mg QW (n = 9), All grades): 2 | Hypokalemia, drug-related adverse event, patients (200 mg QW (n = 9), All grades): 2 | Insulin c-peptide increased, drug-related adverse event, patients (200 mg QW (n = 9), All grades): 5 | Leukopenia, drug-related adverse event, patients (200 mg QW (n = 9), All grades): 8 | Localized edema, drug-related adverse event, patients (200 mg QW (n = 9), All grades): 4 | Lymphopenia, drug-related adverse event, patients (200 mg QW (n = 9), All grades): 2 | Nausea, drug-related adverse event, patients (200 mg QW (n = 9), All grades): 3 | Neutropenia, drug-related adverse event, patients (200 mg QW (n = 9), All grades): 4 | Palmar-plantar erythrodysaesthesia syndrome, drug-related adverse event, patients (200 mg QW (n = 9), All grades): 2 | Pruritus, drug-related adverse event, patients (200 mg QW (n = 9), All grades): 5 | Pyrexia, drug-related adverse event, patients (200 mg QW (n = 9), All grades): 5 | Rash, drug-related adverse event, patients (200 mg QW (n = 9), All grades): 6 | Stomatitis, drug-related adverse event, patients (200 mg QW (n = 9), All grades): 6 | Vomiting, drug-related adverse event, patients (200 mg QW (n = 9), All grades): 3 | ALT increased, drug-related adverse event, patients (200 mg QW (n = 9), Grades 3–5): 1 | Blood creatinine increased, drug-related adverse event, patients (200 mg QW (n = 9), Grades 3–5): 0 | Decreased appetite, drug-related adverse event, patients (200 mg QW (n = 9), Grades 3–5): 1 | Diarrhea, drug-related adverse event, patients (200 mg QW (n = 9), Grades 3–5): 0 | Dry skin, drug-related adverse event, patients (200 mg QW (n = 9), Grades 3–5): 0 | Eosinophil count increased, drug-related adverse event, patients (200 mg QW (n = 9), Grades 3–5): 0 | Eosinophilia, drug-related adverse event, patients (200 mg QW (n = 9), Grades 3–5): 0 | Erythema multiforme, drug-related adverse event, patients (200 mg QW (n = 9), Grades 3–5): 2 | Fatigue, drug-related adverse event, patients (200 mg QW (n = 9), Grades 3–5): 0 | HbA1C increased, drug-related adverse event, patients (200 mg QW (n = 9), Grades 3–5): 0 | Hyperglycemia, drug-related adverse event, patients (200 mg QW (n = 9), Grades 3–5): 2 | Hypernatremia, drug-related adverse event, patients (200 mg QW (n = 9), Grades 3–5): 1 | Hypoalbuminemia, drug-related adverse event, patients (200 mg QW (n = 9), Grades 3–5): 0 | Hypokalemia, drug-related adverse event, patients (200 mg QW (n = 9), Grades 3–5): 0 | Insulin c-peptide increased, drug-related adverse event, patients (200 mg QW (n = 9), Grades 3–5): 0 | Leukopenia, drug-related adverse event, patients (200 mg QW (n = 9), Grades 3–5): 1 | Localized edema, drug-related adverse event, patients (200 mg QW (n = 9), Grades 3–5): 0 | Lymphopenia, drug-related adverse event, patients (200 mg QW (n = 9), Grades 3–5): 2 | Nausea, drug-related adverse event, patients (200 mg QW (n = 9), Grades 3–5): 1 | Neutropenia, drug-related adverse event, patients (200 mg QW (n = 9), Grades 3–5): 0 | Palmar-plantar erythrodysaesthesia syndrome, drug-related adverse event, patients (200 mg QW (n = 9), Grades 3–5): 0 | Pruritus, drug-related adverse event, patients (200 mg QW (n = 9), Grades 3–5): 0 | Pyrexia, drug-related adverse event, patients (200 mg QW (n = 9), Grades 3–5): 0 | Rash, drug-related adverse event, patients (200 mg QW (n = 9), Grades 3–5): 0 | Stomatitis, drug-related adverse event, patients (200 mg QW (n = 9), Grades 3–5): 0 | Vomiting, drug-related adverse event, patients (200 mg QW (n = 9), Grades 3–5): 0 | time until onset of DLTs (200 mg QW, grade 3 facial edema and grade 3 erythema multiforme): 10 days | time until onset of DLTs (200 mg QW, grade 3 hyperglycemia and grade 3 erythema multiforme): 11 days | time until onset of DLT (200 mg QW, grade 4 hyponatremia): 10 days | ALT increased, drug-related adverse event, patients (Total (n = 24), All grades): 4 | Blood creatinine increased, drug-related adverse event, patients (Total (n = 24), All grades): 8/24 and 8 | Decreased appetite, drug-related adverse event, patients (Total (n = 24), All grades): 7 | Diarrhea, drug-related adverse event, patients (Total (n = 24), All grades): 10/24 and 10 | Dry skin, drug-related adverse event, patients (Total (n = 24), All grades): 5 | Eosinophil count increased, drug-related adverse event, patients (Total (n = 24), All grades): 7 | Eosinophilia, drug-related adverse event, patients (Total (n = 24), All grades): 13/24 and 13 | Erythema multiforme, drug-related adverse event, patients (Total (n = 24), All grades): 4 | Fatigue, drug-related adverse event, patients (Total (n = 24), All grades): 10 | HbA1C increased, drug-related adverse event, patients (Total (n = 24), All grades): 7 | Hyperglycemia, drug-related adverse event, patients (Total (n = 24), All grades): 12/24 and 12 | Hypernatremia, drug-related adverse event, patients (Total (n = 24), All grades): 5 | Hypoalbuminemia, drug-related adverse event, patients (Total (n = 24), All grades): 4 | Hypokalemia, drug-related adverse event, patients (Total (n = 24), All grades): 4 | Insulin c-peptide increased, drug-related adverse event, patients (Total (n = 24), All grades): 16/24 and 16 | Leukopenia, drug-related adverse event, patients (Total (n = 24), All grades): 12/24 and 12 | Localized edema, drug-related adverse event, patients (Total (n = 24), All grades): 4 | Lymphopenia, drug-related adverse event, patients (Total (n = 24), All grades): 9/24 and 9 | Nausea, drug-related adverse event, patients (Total (n = 24), All grades): 5 | Neutropenia, drug-related adverse event, patients (Total (n = 24), All grades): 9/24 and 9 | Palmar-plantar erythrodysaesthesia syndrome, drug-related adverse event, patients (Total (n = 24), All grades): 4 | Pruritus, drug-related adverse event, patients (Total (n = 24), All grades): 10 | Pyrexia, drug-related adverse event, patients (Total (n = 24), All grades): 13/24 and 13 | Rash, drug-related adverse event, patients (Total (n = 24), All grades): 20/24 and 20 | Stomatitis, drug-related adverse event, patients (Total (n = 24), All grades): 14/24 and 14 | Vomiting, drug-related adverse event, patients (Total (n = 24), All grades): 4 | ALT increased, drug-related adverse event, patients (Total (n = 24), Grades 3–5): 1 | Blood creatinine increased, drug-related adverse event, patients (Total (n = 24), Grades 3–5): 0 | Decreased appetite, drug-related adverse event, patients (Total (n = 24), Grades 3–5): 1 | Diarrhea, drug-related adverse event, patients (Total (n = 24), Grades 3–5): 1 | Dry skin, drug-related adverse event, patients (Total (n = 24), Grades 3–5): 0 | Eosinophil count increased, drug-related adverse event, patients (Total (n = 24), Grades 3–5): 0 | Eosinophilia, drug-related adverse event, patients (Total (n = 24), Grades 3–5): 0 | Erythema multiforme, drug-related adverse event, patients (Total (n = 24), Grades 3–5): 2 | Fatigue, drug-related adverse event, patients (Total (n = 24), Grades 3–5): 0 | HbA1C increased, drug-related adverse event, patients (Total (n = 24), Grades 3–5): 0 | Hyperglycemia, drug-related adverse event, patients (Total (n = 24), Grades 3–5): 2 | Hypernatremia, drug-related adverse event, patients (Total (n = 24), Grades 3–5): 1 | Hypoalbuminemia, drug-related adverse event, patients (Total (n = 24), Grades 3–5): 0 | Hypokalemia, drug-related adverse event, patients (Total (n = 24), Grades 3–5): 0 | Insulin c-peptide increased, drug-related adverse event, patients (Total (n = 24), Grades 3–5): 0 | Leukopenia, drug-related adverse event, patients (Total (n = 24), Grades 3–5): 1 | Localized edema, drug-related adverse event, patients (Total (n = 24), Grades 3–5): 0 | Lymphopenia, drug-related adverse event, patients (Total (n = 24), Grades 3–5): 6 | Nausea, drug-related adverse event, patients (Total (n = 24), Grades 3–5): 1 | Neutropenia, drug-related adverse event, patients (Total (n = 24), Grades 3–5): 1 | Palmar-plantar erythrodysaesthesia syndrome, drug-related adverse event, patients (Total (n = 24), Grades 3–5): 0 | Pruritus, drug-related adverse event, patients (Total (n = 24), Grades 3–5): 0 | Pyrexia, drug-related adverse event, patients (Total (n = 24), Grades 3–5): 0 | Rash, drug-related adverse event, patients (Total (n = 24), Grades 3–5): 1 | Stomatitis, drug-related adverse event, patients (Total (n = 24), Grades 3–5): 0 | Vomiting, drug-related adverse event, patients (Total (n = 24), Grades 3–5): 0 | treatment-related deaths (all cohorts): No treatment-related deaths | diarrhea related to MK-2206, percent of patients [1]: 41.7% | elevated blood creatinine level related to MK-2206, percent of patients [1]: 33.3% | elevated insulin c-peptide level related to MK-2206, percent of patients [1]: 66.7% | eosinophilia related to MK-2206, percent of patients [1]: 54.2% | hyperglycemia related to MK-2206, percent of patients [1]: 50.0% | leukopenia related to MK-2206, percent of patients [1]: 50.0% | lymphopenia related to MK-2206, percent of patients [1]: 37.5% | neutropenia related to MK-2206, percent of patients [1]: 37.5% | pyrexia related to MK-2206, percent of patients [1]: 54.2% | rash related to MK-2206, percent of patients [1]: 83.3% | stomatitis related to MK-2206, percent of patients [1]: 58.3%
